Data: PMC6584500, “Small-molecule targeting of MUSASHI RNA-binding activity in acute myeloid leukemia” (Nature Communications, 2019)
Read-outs that look alike come from different tables or passages of the source. Each block holds one molecule with its values, some of them ahead of it.

How the values were obtained:
[1] = molecular target: T1, GST-MSI2 (full-length human MSI2) (Homo sapiens, UniProt Q96DH6); test: microscale thermophoresis; assay type: binding
T1 construct: full-length, N-terminal GST-Flag tag kept (pGEX6P3), expressed in E. coli BL21(DE3)

[2] = molecular target: T1, GST-MSI2 (full-length human MSI2); test: fluorescence polarization, RNA-binding inhibition; assay type: biochemical
[3] = molecular target: T1, GST-MSI2 (full-length human MSI2); test: fluorescence polarization, RNA-binding inhibition; assay type: biochemical; conditions: Cy3-C9-rGUAGUAGU RNA oligo, 384-well; no inhibition
[4] = molecular target: T2, GST-MSI2 (full-length human MSI2) (Homo sapiens, UniProt Q96DH6, F66A/F97A/R100A); test: microscale thermophoresis; conditions: NT647-labelled protein, 50 mM HEPES, 100 mM NaCl, 0.05% Tween-20, pH 7.4, RT; no binding
T2 construct: full-length, N-terminal GST-Flag tag kept (pGEX6P3), expressed in E. coli BL21(DE3)

[5] = molecular target: T3, GST-MSI2 (full-length human MSI2) (Homo sapiens, UniProt Q96DH6, R100A); test: microscale thermophoresis; assay type: binding
T3 construct: full-length, N-terminal GST-Flag tag kept (pGEX6P3), expressed in E. coli BL21(DE3)

[6] = molecular target: T4, GST-MSI2 (full-length human MSI2) (Homo sapiens, UniProt Q96DH6, K22A); test: microscale thermophoresis; assay type: binding
T4 construct: full-length, N-terminal GST-Flag tag kept (pGEX6P3), expressed in E. coli BL21(DE3)

MSI2 RRM1 [7] = molecular target: T5, MSI2 RRM1 (Homo sapiens, UniProt Q96DH6); test: NMR chemical shift perturbation; assay type: binding; conditions: 15N-labelled RRM1, tag removed, 20 mM MES, 150 mM NaCl, pH 6.0, 5 °C
T5 construct: RNA-recognition motif 1 only (nucleotides 64-270 of NM_138962.2 as printed); GST-RRM1 made in BL21(DE3); for NMR His6-SUMO fusion with tag cleaved
T5 sequence (Q96DH6 22-104): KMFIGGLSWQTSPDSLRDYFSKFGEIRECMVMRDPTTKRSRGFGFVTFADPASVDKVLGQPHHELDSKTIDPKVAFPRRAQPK

GST-SYNCRIP = molecular target: T6, GST-SYNCRIP (Homo sapiens, UniProt O60506); test: microscale thermophoresis; assay type: binding
T6 construct: N-terminal GST-Flag tag kept (pGEX6P3), expressed in E. coli BL21(DE3)
T6 sequence (O60506 1-623): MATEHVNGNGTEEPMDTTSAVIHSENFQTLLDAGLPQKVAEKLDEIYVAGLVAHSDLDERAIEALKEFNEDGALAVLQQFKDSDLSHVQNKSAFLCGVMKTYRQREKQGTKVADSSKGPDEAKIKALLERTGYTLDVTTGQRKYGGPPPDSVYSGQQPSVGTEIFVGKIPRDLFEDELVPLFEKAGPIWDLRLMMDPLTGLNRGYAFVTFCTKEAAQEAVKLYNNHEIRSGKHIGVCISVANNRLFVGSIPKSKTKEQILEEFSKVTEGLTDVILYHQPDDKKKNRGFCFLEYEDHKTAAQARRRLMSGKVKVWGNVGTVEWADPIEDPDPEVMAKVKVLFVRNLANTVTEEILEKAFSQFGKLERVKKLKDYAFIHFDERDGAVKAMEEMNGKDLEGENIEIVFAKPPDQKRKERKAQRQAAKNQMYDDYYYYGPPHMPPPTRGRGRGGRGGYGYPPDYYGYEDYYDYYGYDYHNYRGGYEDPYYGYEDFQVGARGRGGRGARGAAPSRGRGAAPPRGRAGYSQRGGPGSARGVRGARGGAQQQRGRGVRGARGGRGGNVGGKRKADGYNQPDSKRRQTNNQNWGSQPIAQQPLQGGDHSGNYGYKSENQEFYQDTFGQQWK

[8] = molecular target: T7, GST-MSI2 (full-length human MSI2) (Homo sapiens, UniProt Q96DH6, F97A); test: microscale thermophoresis; assay type: binding
T7 construct: full-length, N-terminal GST-Flag tag kept (pGEX6P3), expressed in E. coli BL21(DE3)

bovine serum ALBUMIN = molecular target: T8, bovine serum ALBUMIN (Bos taurus, UniProt P02769); test: microscale thermophoresis; assay type: binding
T8 construct: gene ALB

GST-SRSF2 = molecular target: T9, GST-SRSF2 (Homo sapiens, UniProt Q01130); test: microscale thermophoresis; assay type: binding
T9 construct: commercial GST-tagged recombinant protein
T9 sequence (Q01130 2-221): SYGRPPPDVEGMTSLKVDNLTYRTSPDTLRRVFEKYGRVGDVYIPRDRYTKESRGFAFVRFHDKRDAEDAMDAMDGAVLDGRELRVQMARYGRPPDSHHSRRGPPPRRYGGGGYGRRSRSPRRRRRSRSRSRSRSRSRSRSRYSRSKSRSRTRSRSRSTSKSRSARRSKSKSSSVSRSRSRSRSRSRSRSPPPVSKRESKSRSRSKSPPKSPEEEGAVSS

[9] = molecular target: T10, GST-MSI2 (full-length human MSI2) (Homo sapiens, UniProt Q96DH6, F66A); test: microscale thermophoresis; assay type: binding
T10 construct: full-length, N-terminal GST-Flag tag kept (pGEX6P3), expressed in E. coli BL21(DE3)

MSI2 RRM1 [10] = molecular target: T5, MSI2 RRM1; test: microscale thermophoresis; assay type: binding; conditions: NT647-labelled protein, pH 7.4, RT
[11] = molecular target: T1, GST-MSI2 (full-length human MSI2); test: fluorescence polarization, RNA-binding inhibition
MSI2 F97A = MSI2 F97A (Homo sapiens, UniProt Q96DH6 1-328, F97A); test: MST; MST: 50 mM HEPES, 100 mM NaCl, 0.05% Tween-20, pH 7.4, RT; EMSA: 10 mM HEPES, 20 mM KCl (+10 mM KCl), 1 mM MgCl2, 1 mM DTT, 5% glycerol, 100 ug/mL tRNA, 40 nM RNA, RT; conditions: protein: recombinant; tags: GST, Flag; single strand
MSI2 WT = MSI2 WT (Homo sapiens, UniProt Q96DH6 1-328); test: as above; conditions: protein: recombinant; tags: GST, Flag; single strand
MSI2 R100A = MSI2 R100A (Homo sapiens, UniProt Q96DH6 1-328, R100A); test: as above; conditions: protein: recombinant; tags: GST, Flag; single strand
MSI2 F66A = MSI2 F66A (Homo sapiens, UniProt Q96DH6 1-328, F66A); test: as above; conditions: protein: recombinant; tags: GST, Flag; single strand
MSI2 K22A = MSI2 K22A (Homo sapiens, UniProt Q96DH6 1-328, K22A); test: as above; conditions: protein: recombinant; tags: GST, Flag; single strand
Chain of MSI2 K22A (Q96DH6 whole entry K22A): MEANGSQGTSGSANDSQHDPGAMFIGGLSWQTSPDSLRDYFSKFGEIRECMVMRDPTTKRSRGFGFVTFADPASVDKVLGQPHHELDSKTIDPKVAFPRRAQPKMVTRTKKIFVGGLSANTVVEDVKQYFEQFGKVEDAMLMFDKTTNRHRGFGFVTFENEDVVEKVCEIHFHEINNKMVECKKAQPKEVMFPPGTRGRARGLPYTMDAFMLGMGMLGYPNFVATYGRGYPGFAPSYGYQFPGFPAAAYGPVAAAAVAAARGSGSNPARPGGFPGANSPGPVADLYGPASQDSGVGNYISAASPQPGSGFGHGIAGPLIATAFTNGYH

T1 sequence (Q96DH6 whole entry): as the sequence (Q96DH6 whole entry K22A) above, with A22K counted along it
Chain of MSI2 WT (Q96DH6 whole entry): as the sequence (Q96DH6 whole entry K22A) above, with A22K counted along it
T8 sequence (P02769 25-607): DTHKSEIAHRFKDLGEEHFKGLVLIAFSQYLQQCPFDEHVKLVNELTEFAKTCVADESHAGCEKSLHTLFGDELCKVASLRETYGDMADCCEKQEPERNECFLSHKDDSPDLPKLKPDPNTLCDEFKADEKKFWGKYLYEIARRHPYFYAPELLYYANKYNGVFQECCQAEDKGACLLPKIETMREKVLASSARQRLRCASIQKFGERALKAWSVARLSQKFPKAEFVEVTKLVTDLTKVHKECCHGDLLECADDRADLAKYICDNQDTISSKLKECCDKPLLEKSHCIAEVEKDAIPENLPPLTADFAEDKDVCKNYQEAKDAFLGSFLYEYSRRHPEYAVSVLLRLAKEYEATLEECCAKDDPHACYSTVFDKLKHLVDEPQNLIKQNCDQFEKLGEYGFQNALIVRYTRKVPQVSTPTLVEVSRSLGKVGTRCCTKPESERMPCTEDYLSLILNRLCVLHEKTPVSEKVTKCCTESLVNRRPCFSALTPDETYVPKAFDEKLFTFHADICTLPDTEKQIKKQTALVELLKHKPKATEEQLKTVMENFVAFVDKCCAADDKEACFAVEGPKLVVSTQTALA
T4 sequence (Q96DH6 whole entry K22A): as the sequence (Q96DH6 whole entry K22A) above
T10 sequence (Q96DH6 whole entry F66A): as the sequence (Q96DH6 whole entry K22A) above, with A22K, F66A counted along it
Chain of MSI2 F66A (Q96DH6 whole entry F66A): as the sequence (Q96DH6 whole entry K22A) above, with A22K, F66A counted along it
T3 sequence (Q96DH6 whole entry R100A): as the sequence (Q96DH6 whole entry K22A) above, with A22K, R100A counted along it
Chain of MSI2 R100A (Q96DH6 whole entry R100A): as the sequence (Q96DH6 whole entry K22A) above, with A22K, R100A counted along it
Chain of MSI2 F97A (Q96DH6 whole entry F97A): as the sequence (Q96DH6 whole entry K22A) above, with A22K, F97A counted along it
T7 sequence (Q96DH6 whole entry F97A): as the sequence (Q96DH6 whole entry K22A) above, with A22K, F97A counted along it
T2 sequence (Q96DH6 whole entry F66A/F97A/R100A): as the sequence (Q96DH6 whole entry K22A) above, with A22K, F66A, F97A, R100A counted along it

Kd [1]: 302 ± 119 µM
IC50 [2]: 25 ± 8 µM
Molecule: Cc1cc2nc3c(=O)[nH]c(=O)nc-3n(C)c2cc1CO [Ro-OH]

Kd ([1]; NT647-labelled protein, 50 mM HEPES, 100 mM NaCl, 0.05% Tween-20, pH 7.4, RT, no interaction detected up to 500 μM): > 500 µM
Molecule: CC(=O)Nc1ccc2nc3c(=O)n(C)c(=O)n(C)c3nc2c1 [Ro-NGF]
fluorescence polarization, RNA-binding inhibition [3]: Ro-NGF failing to inhibit RNA-binding activity

Kd [5]: 148 ± 65 µM
Kd [1]: 12.3 ± 0.5 µM
Kd [6]: > 200 µM
Kd (GST-SYNCRIP): 236 ± 167 µM
Kd [8]: 69.5 ± 14.7 µM
Kd (bovine serum ALBUMIN): > 500 µM
Kd (GST-SRSF2): 190 ± 62 µM
Kd [9]: > 200 µM
Kd (MSI2 RRM1 [10]): 24.3 ± 4 µM
IC50 [11]: 2.7 ± 0.4 µM
Molecule: Cc1cc2nc3c(=O)[nH]c(=O)nc-3n(C)c2cc1C=O [Ro, Ro 08–2750]
microscale thermophoresis [4]: The triple mutant (F66A/F97A/R100A) was incapable of binding to Ro
NMR chemical shift perturbation (MSI2 RRM1 [7]): observed three main regions with structural changes by titrating MSI2 with Ro

Molecule: GUAGUAGUAGUAGUA (ssRNA) [15-nt MSI RNA oligo]
Kd (MSI2 F97A): 0.0066 ± 0.001 µM
Kd (MSI2 WT): 0.0088 ± 0.0009 µM
Kd (MSI2 R100A): 0.0065 ± 0.0009 µM
Kd (MSI2 F66A): 0.0062 ± 0.0006 µM
Kd (MSI2 K22A): 0.0064 ± 0.0006 µM
